Target: Adenosylhomocysteinase (Homo sapiens) (UniProt P23526)
Assay: Enzyme catalytic rate kinetic constant for S-adenosyl-L-homocysteine hydrolase; Not a substrate

Adenosylhomocysteinase (Homo sapiens), sequence (P23526 2-432 limits assumed): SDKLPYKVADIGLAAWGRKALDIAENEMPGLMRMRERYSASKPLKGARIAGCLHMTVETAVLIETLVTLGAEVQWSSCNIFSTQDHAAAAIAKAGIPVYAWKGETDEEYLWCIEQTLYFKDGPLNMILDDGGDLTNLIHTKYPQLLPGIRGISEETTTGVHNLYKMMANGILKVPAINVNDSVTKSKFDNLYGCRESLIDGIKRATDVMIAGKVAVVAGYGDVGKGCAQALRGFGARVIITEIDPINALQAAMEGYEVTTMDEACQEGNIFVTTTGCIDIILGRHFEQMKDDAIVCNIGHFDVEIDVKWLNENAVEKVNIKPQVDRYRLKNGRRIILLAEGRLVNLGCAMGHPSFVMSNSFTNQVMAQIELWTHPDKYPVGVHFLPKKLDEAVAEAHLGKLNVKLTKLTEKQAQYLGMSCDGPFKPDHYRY

For `Nc1nc(O)cc(-c2cncn2C2O[C@H](CO)[C@@H](O)[C@H]2O)n1` (stereo partly specified), the k cat was “Not a substrate”.
